Source: patent publication US9738655B2, “Tetrahydroisoquinolines containing substituted azoles as factor XIa inhibitors” (BRISTOL-MYERS SQUIBB COMPANY, priority 2013, dated 2017)
Counter-ions that a name gives are not always drawn.

Biological target: purified human plasma kallikrein (Homo sapiens (Human), UniProt P03952)
Assay: Plasma kallikrein enzyme inhibition assay (chromogenic substrate S-2302)
Type: biochemical
Details: measured at 25° C. (no asterisk)
Description: The effectiveness of compounds of the present invention as inhibitors of the coagulation Factors XIa, VIIa, IXa, Xa, XIIa, plasma kallikrein or thrombin, can be determined using a relevant purified serine protease, respectively, and an appropriate synthetic substrate. The rate of hydrolysis of the chromogenic or fluorogenic substrate by the relevant serine protease was measured both in the absence and presence of compounds of the present invention. […] A decrease in the rate of absorbance or fluorescence change in the presence of inhibitor is indicative of enzyme inhibition. […] The results of this assay are expressed as the inhibitory constant, Ki.
Values of Ki were determined by allowing the protease to react with the substrate in the presence of the inhibitor.
The following relationships were used to calculate Ki values: (Vmax*S)/(Km+S); (vo−vs)/vs=I/(Ki(1+S/Km)) for a competitive inhibitor with one binding site; or vs/vo=A+((B−A)/1+((IC50/(I)n))); and Ki−IC50/((1+S/Km) for a competitive inhibitor where:

Sequence of purified human plasma kallikrein (P03952 391-638): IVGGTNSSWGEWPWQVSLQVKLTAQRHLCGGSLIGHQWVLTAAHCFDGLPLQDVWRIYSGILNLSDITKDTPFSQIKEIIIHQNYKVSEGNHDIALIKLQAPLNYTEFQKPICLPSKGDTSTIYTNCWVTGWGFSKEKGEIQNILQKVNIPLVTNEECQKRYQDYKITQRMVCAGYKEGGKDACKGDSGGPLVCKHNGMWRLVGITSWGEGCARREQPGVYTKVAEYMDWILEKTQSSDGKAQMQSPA
Sequence of purified human plasma kallikrein (P03952 20-390 partner): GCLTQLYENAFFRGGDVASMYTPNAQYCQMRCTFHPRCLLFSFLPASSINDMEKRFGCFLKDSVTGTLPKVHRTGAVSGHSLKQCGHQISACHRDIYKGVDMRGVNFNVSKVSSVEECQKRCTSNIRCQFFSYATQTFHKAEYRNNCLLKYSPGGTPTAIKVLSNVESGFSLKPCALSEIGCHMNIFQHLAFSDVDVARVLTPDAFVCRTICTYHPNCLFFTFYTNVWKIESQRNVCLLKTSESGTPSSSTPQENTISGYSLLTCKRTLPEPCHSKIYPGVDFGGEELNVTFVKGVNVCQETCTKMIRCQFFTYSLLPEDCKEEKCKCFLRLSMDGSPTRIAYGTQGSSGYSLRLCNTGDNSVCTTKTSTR

SMILES | Ki [µM]
COc1cccc2c1CCN(C(=O)[C@H]1CC(c3cccc(Cl)c3F)=NO1)[C@H]2C(=O)Nc1ccc(C(=O)O)cc1 [Example 294, 4-((R)-2-((R)-3-(3-chloro-2-fluorophenyl)-4,5-dihydroisoxazole-5-carbonyl)-5-methoxy-1,2,3,4-tetrahydroisoquinoline-1-carboxamido)benzoic acid] | 0.111
CN1CCN(c2cccc3c2CCN(C(=O)C2CC(c4cccc(Cl)c4F)=NO2)C3C(=O)Nc2ccc(C(=O)O)cc2)CC1 (stereo not drawn) [Example 202, 4-(2-(3-(3-chloro-2-fluorophenyl)-4,5-dihydroisoxazole-5-carbonyl)-5-(4-methylpiperazin-1-yl)-1,2,3,4-tetrahydroisoquinoline-1-carboxamido)benzoic acid, 2 TFA salt] | 0.00111
COCCOc1cccc2c1CCN(C(=O)[C@H]1CC(c3cccc(Cl)c3F)=NO1)[C@@H]2C(=O)Nc1ccc(C(=O)O)cc1 [Example 114, 4-((S)-2-((R)-3-(3-Chloro-2-fluorophenyl)-4,5-dihydroisoxazole-5-carbonyl)-5-(2-methoxyethoxy)-1,2,3,4-tetrahydroisoquinoline-1-carboxamido)benzoic Acid] | 0.0152
COc1cccc2c1CCN(C(=O)[C@H]1CC(c3cccc(Cl)c3F)=NO1)[C@@H]2C(=O)Nc1ccc(C(=O)O)cc1 [Example 293, 4-((S)-2-((R)-3-(3-chloro-2-fluorophenyl)-4,5-dihydroisoxazole-5-carbonyl)-5-methoxy-1,2,3,4-tetrahydroisoquinoline-1-carboxamide)benzoic acid] | 0.00324
O=C(O)c1ccc(NC(=O)[C@@H]2c3ccccc3CCN2C(=O)[C@H]2CC(c3cccc(Cl)c3F)=NO2)cc1 [Example 4, 4-((S)-2-((R)-3-(3-Chloro-2-fluorophenyl)-4,5-dihydroisoxazole-5-carbonyl)-1,2,3,4-tetrahydroisoquinoline-1-carboxamido)benzoic acid] | 0.00638
O=C(O)c1ccc(NC(=O)[C@H]2c3ccccc3CCN2C(=O)[C@H]2CC(c3cccc(Cl)c3F)=NO2)cc1 [Example 5, 4-((R)-2-((R)-3-(3-Chloro-2-fluorophenyl)-4,5-dihydroisoxazole-5-carbonyl)-1,2,3,4-tetrahydroisoquinoline-1-carboxamido)benzoic acid] | 1.38
O=C(O)c1ccc(NC(=O)[C@@H]2c3cccc(N4CCCCC4)c3CCN2C(=O)[C@H]2CC(c3cccc(Cl)c3F)=NO2)cc1 [Example 291, 4-((S)-2-((R)-3-(3-chloro-2-fluorophenyl)-4,5-dihydroisoxazole-5-carbonyl)-5-(piperidin-1-yl)-1,2,3,4-tetrahydroisoquinoline-1-carboxamido)benzoic acid, TFA salt] | 0.0152
CNC(=O)c1ccc(-c2cccc3c2CCN(C(=O)[C@H]2CC(c4cccc(Cl)c4F)=NO2)[C@@H]3C(=O)Nc2ccc(C(=O)O)cc2)cn1 [Example 19, 4-((S)-2-((R)-3-(3-Chloro-2-fluorophenyl)-4,5-dihydroisoxazole-5-carbonyl)-5-(6-(methylcarbamoyl)pyridin-3-yl)-1,2,3,4-tetrahydroisoquinoline-1-carboxamido)benzoic acid, TFA salt] | 0.00151
COC1CCN(c2cccc3c2CCN(C(=O)C2CCN(c4cccc(Cl)c4)C2=O)C3C(=O)Nc2ccc(C(=O)O)cc2)CC1 (stereo not drawn) [Example 151, 4-(2-(1-(3-chlorophenyl)-2-oxopyrrolidine-3-carbonyl)-5-(4-methoxypiperidin-1-yl)-1,2,3,4-tetrahydroisoquinoline-1-carboxamido)benzoic acid, TFA salt] | 0.816
COCCOc1cccc2c1CCN(C(=O)[C@H]1CC(c3cccc(Cl)c3F)=NO1)[C@H]2C(=O)Nc1ccc(C(=O)O)cc1 [Example 115, 4-((R)-2-((R)-3-(3-Chloro-2-fluorophenyl)-4,5-dihydroisoxazole-5-carbonyl)-5-(2-methoxyethoxy)-1,2,3,4-tetrahydroisoquinoline-1-carboxamido)benzoic acid] | 0.0613
CNC(=O)c1ccc(-c2cccc3c2CCN(C(=O)[C@H]2CC(c4cccc(Cl)c4F)=NO2)[C@H]3C(=O)Nc2ccc(C(=O)O)cc2)cn1 [Example 20, 4-((R)-2-((R)-3-(3-Chloro-2-fluorophenyl)-4,5-dihydroisoxazole-5-carbonyl)-5-(6-(methylcarbamoyl)pyridin-3-yl)-1,2,3,4-tetrahydroisoquinoline-1-carboxamido)benzoic acid, TFA salt] | 0.84
O=C(O)c1ccc(NC(=O)C2c3cccc(N4CCOCC4)c3CCN2C(=O)[C@H]2CC(c3cccc(Cl)c3F)=NO2)cc1 (stereo in doubt) [Example 296, 4-((S)-2-((R)-3-(3-chloro-2-fluorophenyl)-4,5-dihydroisoxazole-5-carbonyl)-5-morpholino-1,2,3,4-tetrahydroisoquinoline-1-carboxamido)benzoic acid, TFA salt] | 0.186

Same assay, conditions: measured at 25° C. (no asterisk); TFA

SMILES | Ki [µM]
COC1CCN(c2cccc3c2CCN(C(=O)C2CC(c4cccc(Cl)c4F)=NO2)C3C(=O)Nc2ccc(C(=O)O)cc2)CC1 (single isomer, unassigned) [Example 305, 4-(2-(3-(3-chloro-2-fluorophenyl)-4,5-dihydroisoxazole-5-carbonyl)-5-(4-methoxypiperidin-1-yl)-1,2,3,4-tetrahydroisoquinoline-1-carboxamido)benzoic acid, TFA] | 0.0317

Same assay, conditions: measured at 25° C. (no asterisk); TFA salt

SMILES | Ki [µM]
COC1CCN(c2cccc3c2CCN(C(=O)C2CC(c4cccc(Cl)c4F)=NO2)C3C(=O)Nc2ccc(C(=O)O)cc2)CC1 (single isomer, unassigned) [Example 304, 4-(2-(3-(3-chloro-2-fluorophenyl)-4,5-dihydroisoxazole-5-carbonyl)-5-(4-methoxypiperidin-1-yl)-1,2,3,4-tetrahydroisoquinoline-1-carboxamido)benzoic acid, TFA salt] | 0.232

Same assay, conditions: measured at 37° C. (*)

SMILES | Ki [µM]
CC(C)c1nnc2n1CCN(c1cccc3c1CCN(C(=O)[C@@H]1CC(c4cccc(Cl)c4F)=NO1)[C@@H]3C(=O)Nc1ccc(C(=O)O)cc1)C2 [Example 338, 4-((S)-2-((S)-3-(3-Chloro-2-fluorophenyl)-4,5-dihydroisoxazole-5-carbonyl)-5-(3-isopropyl-5,6-dihydro-[1,2,4]triazolo[4,3-a]pyrazin-7(8H)-yl)-1,2,3,4-tetrahydroisoquinoline-1-carboxamido)benzoic acid, TFA salt] | 0.251
O=C(O)c1ccc(NC(=O)[C@@H]2c3cccc(N4CCC(C5COC5)CC4)c3CCN2C(=O)[C@H]2CC(c3cccc(Cl)c3F)=NO2)cc1 [Example 234, 4-((S)-2-((R)-3-(3-Chloro-2-fluorophenyl)-4,5-dihydroisoxazole-5-carbonyl)-5-(4-(oxetan-3-yl)piperidin-1-yl)-1,2,3,4-tetrahydroisoquinoline-1-carboxamido)benzoic acid, TFA salt] | 0.0269
O=C(O)c1ccc(NC(=O)[C@@H]2c3cccc(-n4cnnc4)c3CCN2C(=O)[C@H]2CC(c3cccc(Cl)c3F)=NO2)cc1 [Example 247, 4-((S)-2-((R)-3-(3-Chloro-2-fluorophenyl)-4,5-dihydroisoxazole-5-carbonyl)-5-(4H-1,2,4-triazol-4-yl)-1,2,3,4-tetrahydroisoquinoline-1-carboxamido)benzoic acid, TFA salt] | 0.0092
O=C(O)c1ccc(NC(=O)[C@H]2c3cccc(-c4cncc(F)c4)c3CCN2C(=O)[C@H]2CC(c3cccc(Cl)c3F)=NO2)cc1 [Example 22, 4-((R)-2-((R)-3-(3-Chloro-2-fluorophenyl)-4,5-dihydroisoxazole-5-carbonyl)-5-(5-fluoropyridin-3-yl)-1,2,3,4-tetrahydroisoquinoline-1-carboxamido)benzoic acid, TFA salt] | 0.869

Biological target: purified human Factor XIa (Homo sapiens (Human), UniProt P03951)
Assay: Factor XIa enzyme inhibition assay (chromogenic substrate S-2366)
Details: read-out: Factor XIa Ki; measured at 25° C.

Sequence of purified human Factor XIa (P03951 388-625): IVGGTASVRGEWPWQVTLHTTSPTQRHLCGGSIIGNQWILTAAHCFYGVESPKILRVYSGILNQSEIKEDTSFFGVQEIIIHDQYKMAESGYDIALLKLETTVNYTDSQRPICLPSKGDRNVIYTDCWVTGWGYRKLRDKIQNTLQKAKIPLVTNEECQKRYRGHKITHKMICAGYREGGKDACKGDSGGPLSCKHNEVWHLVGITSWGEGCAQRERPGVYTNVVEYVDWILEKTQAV
Sequence of purified human Factor XIa (P03951 19-387 partner): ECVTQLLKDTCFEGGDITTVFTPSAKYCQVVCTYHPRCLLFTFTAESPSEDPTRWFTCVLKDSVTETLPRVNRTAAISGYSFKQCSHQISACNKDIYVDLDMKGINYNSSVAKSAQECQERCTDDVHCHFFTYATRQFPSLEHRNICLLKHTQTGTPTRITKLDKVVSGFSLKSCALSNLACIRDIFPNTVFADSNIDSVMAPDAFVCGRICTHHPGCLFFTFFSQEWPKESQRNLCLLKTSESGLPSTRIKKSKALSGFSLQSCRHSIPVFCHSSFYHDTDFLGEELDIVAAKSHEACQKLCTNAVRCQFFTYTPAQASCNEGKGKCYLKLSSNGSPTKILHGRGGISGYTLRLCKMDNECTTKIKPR

SMILES | Ki [µM]
COC1CCN(c2cccc3c2CCN(C(=O)C2CCN(c4ccc(OC(C)C)cc4)C2=O)C3C(=O)Nc2ccc(C(=O)O)cc2)CC1 (stereo not drawn) [Example 149, 4-(2-(1-(4-isopropoxyphenyl)-2-oxopyrrolidine-3-carbonyl)-5-(4-methoxypiperidin-1-yl)-1,2,3,4-tetrahydroisoquinoline-1-carboxamido)benzoic acid, TFA salt] | 7.16
O=C(O)c1ccc(NC(=O)[C@@H]2c3cccc(N4CCN(C5COC5)CC4)c3CCN2C(=O)[C@H]2CC(c3cccc(Cl)c3F)=NO2)cc1 [Example 227, 4-((S)-2-((R)-3-(3-Chloro-2-fluorophenyl)-4,5-dihydroisoxazole-5-carbonyl)-5-(4-(oxetan-3-yl)piperazin-1-yl)-1,2,3,4-tetrahydroisoquinoline-1-carboxamido)benzoic acid, 2 TFA salt] | < 0.005
O=C(O)c1ccc(NC(=O)C2c3cccc(-c4ccc5c(c4)CCNC5)c3CCN2C(=O)c2cn(-c3cccc(Cl)c3F)nn2)cc1 (stereo not drawn) [Example 40, 4-(2-(1-(3-chloro-2-fluorophenyl)-1H-1,2,3-triazole-4-carbonyl)-1,1′,2,2′,3,3′,4,4′-octahydro-[5,6′-biisoquinoline]-1-carboxamido)benzoic acid, TFA salt] | < 0.005
NCc1cccc(-c2cccc3c2CCN(C(=O)c2cn(-c4cccc(Cl)c4F)nn2)C3C(=O)Nc2ccc(C(=O)O)cc2)c1 (stereo not drawn) [Example 173, 4-(5-(3-(aminomethyl)phenyl)-2-(1-(3-chloro-2-fluorophenyl)-1H-1,2,3-triazole-4-carbonyl)-1,2,3,4-tetrahydroisoquinoline-1-carboxamido)benzoic acid, TFA salt] | < 0.005
N#Cc1ccc(-c2cccc3c2CCN(C(=O)c2cn(-c4cccc(Cl)c4F)nn2)C3C(=O)Nc2ccc(C(=O)O)cc2)cn1 (stereo not drawn) [Example 182, 4-(2-(1-(3-chloro-2-fluorophenyl)-1H-1,2,3-triazole-4-carbonyl)-5-(6-cyanopyridin-3-yl)-1,2,3,4-tetrahydroisoquinoline-1-carboxamido)benzoic acid, TFA salt] | < 0.005
O=C(O)c1ccc(NC(=O)C2c3cccc(-c4ccc5occc(=O)c5c4)c3CCN2C(=O)c2cn(-c3cccc(Cl)c3F)nn2)cc1 (stereo not drawn) [Example 175, 4-(2-(1-(3-chloro-2-fluorophenyl)-1H-1,2,3-triazole-4-carbonyl)-5-(4-oxo-4H-chromen-6-yl)-1,2,3,4-tetrahydroisoquinoline-1-carboxamido)benzoic acid] | < 0.005
